Consider 34 compounds from ChEMBL document CHEMBL1697731, “Cheminformatics analysis of assertions mined from literature that describe drug-induced liver injury in different species” (Chem Res Toxicol, 2010).

For data set [1], the system named is Hepatotoxicity. In words: Literature-mined compound from Fourches et al multi-species drug-induced liver injury (DILI) dataset, effect in non-rodents.
For data set [2], the system named is Hepatotoxicity. In words: Literature-mined compound from Fourches et al multi-species drug-induced liver injury (DILI) dataset, effect in rodents. The note with it: rodentia.
Data set [3] concerns Hepatotoxicity. In words: Literature-mined compound from Fourches et al multi-species drug-induced liver injury (DILI) dataset, effect in humans. The note with it: human.

As for METHYLCOBALAMIN, the Hepatotoxicity result is recorded as “no drug-induced liver injury reported” with Hepatotoxicity [1], “drug-induced liver injury reported” with Hepatotoxicity [2] and “no drug-induced liver injury reported” with Hepatotoxicity [3].

For `CC(Cc1ccc(O)c(O)c1)C(C)Cc1ccc(O)c(O)c1` (stereo unspecified) [NORDIHYDROGUAIARETIC ACID], the Hepatotoxicity entry with Hepatotoxicity [1] is “no drug-induced liver injury reported”; in the data set on Hepatotoxicity [2] it was “drug-induced liver injury reported”; in the data set on Hepatotoxicity [3], “drug-induced liver injury reported”.

`Cc1ncsc1CCCl` [CLOMETHIAZOLE]: the Hepatotoxicity result with Hepatotoxicity [1] is “no drug-induced liver injury reported”; with Hepatotoxicity [2], “drug-induced liver injury reported”; with Hepatotoxicity [3], “drug-induced liver injury reported”.

On to `COC(c1ccccc1)(c1ccccc1)[C@H](Oc1nc(C)cc(C)n1)C(=O)O` [AMBRISENTAN], for which the figures for the Hepatotoxicity result in the data set with Hepatotoxicity [1], with Hepatotoxicity [2] and in the data set with Hepatotoxicity [3] were “drug-induced liver injury reported”, “no drug-induced liver injury reported” and “no drug-induced liver injury reported”, respectively.

As for `O=C(CCCCCCC(=O)Nc1ccccc1)NO` [VORINOSTAT], the Hepatotoxicity entry with Hepatotoxicity [1] is “no drug-induced liver injury reported”; in the data set with Hepatotoxicity [2] it was “drug-induced liver injury reported”; in the data set on Hepatotoxicity [3] it was “drug-induced liver injury reported”.

On to `NNc1nnc(NN)c2ccccc12` [DIHYDRALAZINE], for which the results for the Hepatotoxicity result with Hepatotoxicity [1], with Hepatotoxicity [2] and in the data set on Hepatotoxicity [3] were “no drug-induced liver injury reported”, “drug-induced liver injury reported” and “drug-induced liver injury reported”, respectively.

On to `CCC(=O)[O-].[Na+]` [SODIUM PROPIONATE], for which the values for the Hepatotoxicity entry in the data set with Hepatotoxicity [1], in the data set on Hepatotoxicity [2] and with Hepatotoxicity [3] were “no drug-induced liver injury reported”, “drug-induced liver injury reported” and “no drug-induced liver injury reported”, respectively.

Regarding `CCC(=O)O[C@@H](O[P@](=O)(CCCCc1ccccc1)CC(=O)N1C[C@H](C2CCCCC2)C[C@H]1C(=O)O)C(C)C` [FOSINOPRIL], the Hepatotoxicity result was “no drug-induced liver injury reported” in the data set with Hepatotoxicity [1], “no drug-induced liver injury reported” with Hepatotoxicity [2] and “drug-induced liver injury reported” in the data set with Hepatotoxicity [3].

On to `C/C=C/C[C@@H](C)C(=O)[C@H]1C(=O)N[C@@H](C(C)C)C(=O)N(C)CC(=O)N(C)[C@@H](CC(C)C)C(=O)N[C@@H](C(C)C)C(=O)N(C)[C@@H](CC(C)C)C(=O)N[C@@H](C)C(=O)N[C@H](C)C(=O)N(C)[C@@H](CC(C)C)C(=O)N(C)[C@@H](CC(C)C)C(=O)N(C)[C@@H](C(C)C)C(=O)N1C` [VALSPODAR], for which the Hepatotoxicity result in the data set on Hepatotoxicity [1] is “no drug-induced liver injury reported”; in the data set with Hepatotoxicity [2], “drug-induced liver injury reported”; in the data set with Hepatotoxicity [3], “drug-induced liver injury reported”.

Consider `C[C@]12CC[C@@H]3c4ccc(OC(=O)N(CCCl)CCCl)cc4CC[C@H]3[C@@H]1CC[C@@H]2O` [ESTRAMUSTINE], for which the results for the Hepatotoxicity entry in the data set with Hepatotoxicity [1], in the data set with Hepatotoxicity [2] and in the data set with Hepatotoxicity [3] were “no drug-induced liver injury reported”, “no drug-induced liver injury reported” and “drug-induced liver injury reported”, respectively.

For the compound `CCC1(C2=CCCCC2)C(=O)NC(=O)NC1=O` [CYCLOBARBITAL], the Hepatotoxicity result in the data set with Hepatotoxicity [1] is recorded as “no drug-induced liver injury reported”; in the data set with Hepatotoxicity [2] it was “drug-induced liver injury reported”; in the data set on Hepatotoxicity [3] it was “no drug-induced liver injury reported”.

For `CCOC(=O)C1=C(C)NC(C)=C(C(=O)OC)C1c1cccc([N+](=O)[O-])c1` (stereo unspecified) [NITRENDIPINE], the Hepatotoxicity result in the data set on Hepatotoxicity [1] was “no drug-induced liver injury reported”; in the data set on Hepatotoxicity [2], “drug-induced liver injury reported”; with Hepatotoxicity [3], “drug-induced liver injury reported”.

For the compound `C=C(CC)C(=O)c1ccc(OCC(=O)O)c(Cl)c1Cl` [ETHACRYNIC ACID], the Hepatotoxicity entry in the data set with Hepatotoxicity [1] is given as “drug-induced liver injury reported”; in the data set with Hepatotoxicity [2], “drug-induced liver injury reported”; in the data set on Hepatotoxicity [3], “no drug-induced liver injury reported”.

As to `O=c1cc[nH]c(=O)[nH]1` [URACIL], the Hepatotoxicity result is “no drug-induced liver injury reported” in the data set with Hepatotoxicity [1], “drug-induced liver injury reported” in the data set with Hepatotoxicity [2] and “drug-induced liver injury reported” in the data set on Hepatotoxicity [3].

Turning to `CCOC(=O)[C@H](CCc1ccccc1)N[C@@H](C)C(=O)N1Cc2ccccc2C[C@H]1C(=O)O`, the Hepatotoxicity result with Hepatotoxicity [1] is “no drug-induced liver injury reported”; with Hepatotoxicity [2] it was “no drug-induced liver injury reported”; in the data set on Hepatotoxicity [3], “drug-induced liver injury reported”.

As to `Cc1nc2ccc(CN(C)c3ccc(C(=O)N[C@@H](CCC(=O)O)C(=O)O)s3)cc2c(=O)[nH]1` [RALTITREXED], the Hepatotoxicity entry in the data set with Hepatotoxicity [1] is “no drug-induced liver injury reported”; in the data set on Hepatotoxicity [2], “no drug-induced liver injury reported”; with Hepatotoxicity [3], “drug-induced liver injury reported”.

As for `CC(c1cc2ccccc2s1)N(O)C(N)=O` (stereo unspecified) [ZILEUTON], the values for the Hepatotoxicity result with Hepatotoxicity [1], with Hepatotoxicity [2] and in the data set on Hepatotoxicity [3] were “no drug-induced liver injury reported”, “drug-induced liver injury reported” and “drug-induced liver injury reported”, respectively.

Turning to `NC(=O)NO` [HYDROXYUREA], the Hepatotoxicity result with Hepatotoxicity [1] is given as “no drug-induced liver injury reported”; with Hepatotoxicity [2], “drug-induced liver injury reported”; in the data set on Hepatotoxicity [3] it was “drug-induced liver injury reported”.

In the case of `Cl.N=C(N)N` [GUANIDINE HYDROCHLORIDE], the values for the Hepatotoxicity result in the data set on Hepatotoxicity [1], with Hepatotoxicity [2] and with Hepatotoxicity [3] were “no drug-induced liver injury reported”, “drug-induced liver injury reported” and “drug-induced liver injury reported”, respectively.

On to `Clc1ccccc1C(c1ccccc1)(c1ccccc1)n1ccnc1` [CLOTRIMAZOLE], for which the Hepatotoxicity entry with Hepatotoxicity [1] was “no drug-induced liver injury reported”; in the data set on Hepatotoxicity [2] it was “drug-induced liver injury reported”; with Hepatotoxicity [3], “no drug-induced liver injury reported”.

As to `CNC(=O)Oc1cccc2ccccc12` [CARBARIL], the Hepatotoxicity result with Hepatotoxicity [1] is listed as “no drug-induced liver injury reported”; in the data set on Hepatotoxicity [2], “drug-induced liver injury reported”; in the data set with Hepatotoxicity [3], “no drug-induced liver injury reported”.

For `CNC(=O)c1cc(Oc2ccc(NC(=O)Nc3ccc(Cl)c(C(F)(F)F)c3)cc2)ccn1.Cc1ccc(S(=O)(=O)O)cc1` [SORAFENIB TOSYLATE], the Hepatotoxicity entry with Hepatotoxicity [1] was “no drug-induced liver injury reported”; in the data set with Hepatotoxicity [2] it was “no drug-induced liver injury reported”; in the data set with Hepatotoxicity [3] it was “drug-induced liver injury reported”.

With `O=C(O)COc1nn(Cc2ccccc2)c2ccccc12` [BENDAZAC], the Hepatotoxicity entry in the data set with Hepatotoxicity [1] (Liver) was “no drug-induced liver injury reported”; in the data set on Hepatotoxicity [2] (Liver) it was “no drug-induced liver injury reported”; with Hepatotoxicity [3] (Liver), “drug-induced liver injury reported”.

In the case of `C#C[C@]1(O)CC[C@H]2[C@@H]3CCc4cc(O)ccc4[C@H]3CC[C@@]21C` [ETHINYL ESTRADIOL], the Hepatotoxicity entry in the data set with Hepatotoxicity [1], in the data set on Hepatotoxicity [2] and in the data set on Hepatotoxicity [3] was “drug-induced liver injury reported” each time.

Turning to `O=c1oc2ccccc2c(O)c1Cc1c(O)c2ccccc2oc1=O` [DICUMAROL], the figures for the Hepatotoxicity entry in the data set on Hepatotoxicity [1], in the data set with Hepatotoxicity [2] and in the data set with Hepatotoxicity [3] were “no drug-induced liver injury reported”, “drug-induced liver injury reported” and “drug-induced liver injury reported”, respectively.

`COc1cccc2c1C(=O)c1c(O)c3c(c(O)c1C2=O)C[C@@](O)(C(=O)CO)C[C@@H]3O[C@H]1C[C@H](N)[C@H](O)[C@H](C)O1.Cl` [DOXORUBICIN HYDROCHLORIDE]: the Hepatotoxicity entry in the data set on Hepatotoxicity [1] was “no drug-induced liver injury reported”; in the data set with Hepatotoxicity [2], “no drug-induced liver injury reported”; in the data set on Hepatotoxicity [3] it was “drug-induced liver injury reported”.

On to `CCCc1nn(C)c2c(=O)[nH]c(-c3cc(S(=O)(=O)N4CCN(C)CC4)ccc3OCC)nc12`, for which the Hepatotoxicity result is “no drug-induced liver injury reported” in the data set with Hepatotoxicity [1], “no drug-induced liver injury reported” in the data set with Hepatotoxicity [2] and “drug-induced liver injury reported” in the data set with Hepatotoxicity [3].

`N=C(N)NCCC[C@H](N)C(=O)O` [ARGININE]: the Hepatotoxicity result in the data set on Hepatotoxicity [1], with Hepatotoxicity [2] and with Hepatotoxicity [3] was “drug-induced liver injury reported” throughout.

Regarding `CC1=C(/C=C/C(C)=C/C=C/C(C)=C/C(=O)Nc2ccc(O)cc2)C(C)(C)CCC1` [FENRETINIDE], the Hepatotoxicity result in the data set with Hepatotoxicity [1] is “no drug-induced liver injury reported”; in the data set on Hepatotoxicity [2], “drug-induced liver injury reported”; with Hepatotoxicity [3] it was “drug-induced liver injury reported”.

With `CCN(CC)CCOc1ccc(C(=C(Cl)c2ccccc2)c2ccccc2)cc1` (stereo in doubt; form 2) [CLOMIPHENE], the results for the Hepatotoxicity result in the data set with Hepatotoxicity [2] and in the data set on Hepatotoxicity [3] were “drug-induced liver injury reported” and “no drug-induced liver injury reported”, respectively.

Consider `CC(=O)[C@H]1CC[C@H]2[C@@H]3CCC4=CC(=O)CC[C@]4(C)[C@H]3CC[C@]12C` (stereo in doubt; form 2) [PROGESTERONE], for which the Hepatotoxicity entry in the data set on Hepatotoxicity [1] and with Hepatotoxicity [2] was “no drug-induced liver injury reported” each time.

For the compound `Cc1ncc(CO)c(CO)c1O` [PYRIDOXINE], the Hepatotoxicity entry with Hepatotoxicity [1] (Liver) is “no drug-induced liver injury reported”; in the data set with Hepatotoxicity [2] (Liver), “drug-induced liver injury reported”.

For the compound `NCC(=O)O` [GLYCINE], the Hepatotoxicity result in the data set with Hepatotoxicity [1] (Liver) and with Hepatotoxicity [2] (Liver) was “drug-induced liver injury reported” in each case.

Turning to `C[C@]12CCC(=O)C=C1CC[C@@H]1[C@@H]2CC[C@@]2(C)[C@H]1CC[C@]2(C)O` (stereo in doubt; form 2) [METHYLTESTOSTERONE], the Hepatotoxicity entry in the data set on Hepatotoxicity [3] is on record as “drug-induced liver injury reported”.
